Calls of active or inactive are those of the source.
Experiments:
Format in all cases: functional, organism-based
[1] = system: Anticarsia gemmatalis; test: Insecticidal activity against Anticarsia gemmatalis (velvetbean caterpillar) assessed as prolongation of larval development upto 76 ppm
[2] = system: Anticarsia gemmatalis; test: Insecticidal activity against Anticarsia gemmatalis (velvetbean caterpillar) assessed as reduction in survival time at > 100 ppm
[3] = system: Anticarsia gemmatalis; test: Insecticidal activity against Anticarsia gemmatalis (velvetbean caterpillar) assessed as sharp decline in proteolytic activity in midgut using L-BApNA and L-TAME at 9.5 ppm
[4] = system: Anticarsia gemmatalis; test: Insecticidal activity against Anticarsia gemmatalis (velvetbean caterpillar) assessed as decrease in pupa weight upto 80 ppm
[5] = system: Anticarsia gemmatalis; test: Effect on diet consumption in Anticarsia gemmatalis (velvetbean caterpillar) assessed as double the consumption at 76 ppm relative to control
[6] = system: Anticarsia gemmatalis; test: Increase in protein digestibility in Anticarsia gemmatalis (velvetbean caterpillar) assessed as double the consumption at 76 ppm
[7] = system: Anticarsia gemmatalis; test: Insecticidal activity against Anticarsia gemmatalis (velvetbean caterpillar) assessed as specific amidolytic and esterolytic activity in midgut at 9.5 ppm
[8] = system: Anticarsia gemmatalis; test: Insecticidal activity against Anticarsia gemmatalis (velvetbean caterpillar) assessed as reduction in survival at > 76 ppm for more than 15 days
[9] = system: Anticarsia gemmatalis; test: Insecticidal activity against Anticarsia gemmatalis (velvetbean caterpillar) assessed as reduction in survival time at over 150 ppm

N=C(N)c1ccc(/N=N/Nc2ccc(C(=N)N)cc2)cc1
active: Activity [1] | inhibition [2] | inhibition [3] | inhibition [4] | Activity [5] | Activity [6] | inhibition [7] | inhibition [8] | inhibition [9]
